Target: T1, MEK1^CA (human GST-MEK1, constitutively active, Ser218Asp and Ser222Asp) (Homo sapiens, UniProt Q02750, S218D/S222D)
T1 construct: GST; made in house; host or cells: Escherichia coli
Assay: MEK1 enzymatic activity assay (MEK1^CA / ERK2 / MBP, [γ-33P]ATP incorporation)
Format: biochemical
Conditions: Table 1, compounds of formula I; read-out: Avg IC50
Summary of the method: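 Cascade assay: 25 µl reactions with 0.002 nmol E. coli-expressed GST-MEK1 S218D/S222D, 0.02 nmol His-tagged mouse ERK2, 0.25 nmol MBP, 0.25 nmol unlabeled ATP and 0.1 µCi [γ-33P]ATP. Compound preincubated 30 min at ambient temperature with MEK1/ERK2; stopped with TCA, 33P-labelled protein filter-captured and scintillation-counted.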

T1 sequence (Q02750 whole entry S218D/S222D): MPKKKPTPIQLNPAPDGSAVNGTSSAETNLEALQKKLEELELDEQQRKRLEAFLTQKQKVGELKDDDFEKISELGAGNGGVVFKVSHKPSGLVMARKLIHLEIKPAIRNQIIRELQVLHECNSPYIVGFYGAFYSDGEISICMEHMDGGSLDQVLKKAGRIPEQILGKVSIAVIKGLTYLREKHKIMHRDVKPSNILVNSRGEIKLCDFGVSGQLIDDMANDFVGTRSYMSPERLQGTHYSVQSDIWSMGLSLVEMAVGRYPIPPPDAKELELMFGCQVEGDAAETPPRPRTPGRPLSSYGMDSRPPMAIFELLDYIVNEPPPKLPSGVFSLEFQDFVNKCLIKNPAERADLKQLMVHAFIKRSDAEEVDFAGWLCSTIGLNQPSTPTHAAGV

Compound	IC50 [nM]
CNC(=N)c1c(O)nsc1Nc1ccc(Oc2ccc(F)cc2)c(Br)c1 [compound 230]	> 500
CNC(=N)c1c(O)nsc1Nc1ccc(Oc2ccc(Cl)cc2Cl)cc1 [compound 231]	100 to 500
CC(CO)NC(=N)c1c(O)nsc1Nc1cc(Cl)cc(Cl)c1 (stereo not drawn) [compound 233]	100 to 500
CC(CO)NC(=N)c1c(O)nsc1Nc1ccc(/C=C/c2ccccc2)cc1 (stereo not drawn) [compound 240]	100 to 500
CC(C)NC(=N)c1c(O)nsc1Nc1ccc(/C=C/c2ccccc2)cc1 [compound 241]	100 to 500
CC(C)NC(=N)c1c(O)nsc1Nc1ccc(Oc2ccc(F)cc2)c(Br)c1 [compound 242]	100 to 500
CC(C)NC(=N)c1c(O)nsc1Nc1ccc(O)c(Cl)c1 [compound 243]	100 to 500
CC(C)NC(=N)c1c(O)nsc1Nc1ccc(S(=O)(=O)c2ccccc2)cc1 [compound 244]	> 500
Cc1ccc(Oc2ccc(Nc3snc(O)c3C(=N)NC(C)CO)cc2)cc1 (stereo not drawn) [compound 247]	100 to 500
CC(C)NC(=N)c1c(O)nsc1Nc1ccc(Oc2cc(Cl)cc(Cl)c2)cc1 [compound 248]	1 to 100
CC(C)NC(=N)c1c(O)nsc1Nc1ccc(Oc2cccc(Cl)c2)cc1 [compound 249]	1 to 100
CC(C)NC(=N)c1c(O)nsc1Nc1ccc(Oc2cccc(Br)c2)cc1 [compound 250]	1 to 100
CC(CO)NC(=N)c1c(O)nsc1Nc1ccc(Oc2cccc(Br)c2)cc1 (stereo not drawn) [compound 251]	1 to 100
CC(CO)NC(=N)c1c(O)nsc1Nc1ccc(Oc2cccc(Cl)c2)cc1 (stereo not drawn) [compound 252]	1 to 100
CC(C)NC(=N)c1c(O)nsc1Nc1ccc(Oc2ccccc2)nc1 [compound 257]	> 500
CC(CO)NC(=N)c1c(O)nsc1Nc1ccc(Oc2ccccc2)nc1 (stereo not drawn) [compound 258]	> 500
Cc1cc(C#N)cc(C)c1Oc1ccc(Nc2snc(O)c2C(=N)NC(C)C)cc1 [compound 262]	> 500
Cc1cc(C)cc(Oc2ccc(Nc3snc(O)c3C(=N)NC(C)CO)cc2)c1 (stereo not drawn) [compound 268]	100 to 500
Cc1cccc(C)c1Oc1ccc(Nc2snc(O)c2C(=N)NC(C)C)cc1 [compound 271]	> 500
CC(C)NC(=N)c1c(O)nsc1Nc1ccc(Oc2cccc(F)c2)cc1 [compound 272]	1 to 100
Cc1cccc(C)c1Oc1ccc(Nc2snc(O)c2C(=N)NC(C)CO)cc1F (stereo not drawn) [compound 276]	> 500
CC(CO)NC(=N)c1c(O)nsc1Nc1ccc(Oc2ccccc2Cl)c(F)c1 (stereo not drawn) [compound 278]	1 to 100

Compound	IC50 [nM]
COc1cccc(F)c1Oc1ccc(Nc2snc(O)c2C(=N)NC(C)CO)cc1 (stereo not drawn) [compound 281]	100 to 500
Cc1cccc(C)c1Oc1ccc(Nc2snc(O)c2C(=N)NC(C)CO)cc1 (stereo not drawn) [compound 282]	> 500
CC(C)NC(=N)c1c(O)nsc1Nc1ccc(Oc2cc(F)cc(F)c2)cc1 [compound 287]	1 to 100
Cc1cccc(Oc2ccc(Nc3snc(O)c3C(=N)NC(C)CO)cc2)c1 (stereo not drawn) [compound 289]	1 to 100
Cc1ccc(Cl)c(Oc2ccc(Nc3snc(O)c3C(=N)NC(C)C)cc2)c1 [compound 292]	1 to 100
CC(C)NC(=N)c1c(O)nsc1Nc1ccc(Oc2ccccc2Br)cc1 [compound 293]	1 to 100
CC(C)NC(=N)c1c(O)nsc1Nc1ccc(Oc2cc(C(F)(F)F)ccc2Cl)cc1 [compound 294]	100 to 500
CC(C)NC(=N)c1c(O)nsc1Nc1ccc(Oc2ccc(F)cc2Cl)c(Cl)c1 [compound 297]	100 to 500
Cc1ccccc1Oc1ccc(Nc2snc(O)c2C(=N)NC(C)C)cc1 [compound 301]	1 to 100
CNC(=N)c1c(O)nsc1Nc1ccc(Oc2ccccc2)c(F)c1 [compound 309]	> 500
CC(C)NC(=N)c1c(O)nsc1Nc1ccc(Oc2ccccc2F)c(F)c1 [compound 310]	1 to 100
Cc1ccc(Cl)cc1Oc1ccc(Nc2snc(O)c2C(=N)NC(C)C)cc1 [compound 311]	100 to 500
CC(C)NC(=N)c1c(O)nsc1Nc1ccc(Oc2cc(Cl)ccc2Cl)cc1 [compound 313]	> 500
CC(CO)NC(=N)c1c(O)nsc1Nc1ccc(-n2cccn2)cc1 (stereo not drawn) [compound 315]	> 500
Cc1cc(Nc2snc(O)c2C(=N)NC(C)C)ccc1Oc1ccccc1Cl [compound 316]	1 to 100
Cc1cc(Nc2snc(O)c2C(=N)NC(C)C)ccc1Oc1ccccc1 [compound 317]	100 to 500
CC(C)NC(=N)c1c(O)nsc1Nc1ccc(Oc2c(F)ccc(F)c2Cl)cc1 [compound 318]	100 to 500
CC(CO)NC(=N)c1c(O)nsc1Nc1ccc(Oc2c(F)ccc(F)c2Cl)cc1 (stereo not drawn) [compound 323]	100 to 500
CC(C)NC(=N)c1c(O)nsc1Nc1ccc(Oc2cccc(F)c2F)cc1 [compound 326]	1 to 100
CC(C)NC(=N)c1c(O)nsc1Nc1ccc(Oc2cc(F)cc(F)c2Cl)c(F)c1 [compound 328]	1 to 100
CC(C)NC(=N)c1c(O)nsc1Nc1ccc(Oc2cc(F)cc(F)c2Cl)cc1 [compound 329]	1 to 100
CC(C)NC(=N)c1c(O)nsc1Nc1ccc(Oc2ccc(Br)cc2)c(F)c1 [compound 330]	1 to 100

Continued, values first:

IC50 [nM]	Compound
1 to 100	CC(C)NC(=N)c1c(O)nsc1Nc1ccc(Oc2ccc(Cl)cc2Cl)cc1 [compound 232]
100 to 500	CC(C)NC(=N)c1c(O)nsc1Nc1ccc(C(=O)c2ccccc2)cc1 [compound 234]
1 to 100	Cc1ccc(Oc2ccc(Nc3snc(O)c3C(=N)NC(C)C)cc2)cc1 [compound 246]
> 500	CC(C)NC(=N)c1c(O)nsc1Nc1ccc(OC2CCNCC2)cc1 [compound 253]
1 to 100	CC(C)NC(=N)c1c(O)nsc1Nc1ccc(Sc2ccccc2)cc1 [compound 255]
> 500	Cc1ccc(Oc2ccc(Nc3snc(O)c3C(=N)NC(C)C)cc2)cn1 [compound 259]
100 to 500	CC(C)NC(=N)c1c(O)nsc1Nc1ccc(Oc2cccc(N(C)C)c2)cc1 [compound 260]
> 500	CC(C)NC(=N)c1c(O)nsc1Nc1ccc(Cl)nc1 [compound 264]
> 500	CC(CO)NC(=N)c1c(O)nsc1Nc1ccc(OCc2ccccc2)cc1 (stereo not drawn) [compound 265]
1 to 100	Cc1cc(C)cc(Oc2ccc(Nc3snc(O)c3C(=N)NC(C)C)cc2)c1 [compound 267]
1 to 100	CC(C)NC(=N)c1c(O)nsc1Nc1ccc(Oc2cccc(C(F)(F)F)c2Cl)cc1 [compound 269]
> 500	COc1cccc(F)c1Oc1ccc(Nc2snc(O)c2C(=N)NC(C)C)cc1 [compound 270]
1 to 100	CC(CO)NC(=N)c1c(O)nsc1Nc1ccc(Oc2cccc(F)c2)cc1 (stereo not drawn) [compound 273]
1 to 100	CC(C)NC(=N)c1c(O)nsc1Nc1ccc(Oc2cccc(C(F)(F)F)c2)cc1 [compound 275]
1 to 100	CC(C)NC(=N)c1c(O)nsc1Nc1ccc(Oc2ccccc2Cl)c(F)c1 [compound 277]
1 to 100	Cc1cccc(C)c1Oc1ccc(Nc2snc(O)c2C(=N)NC(C)C)cc1F [compound 279]
1 to 100	CC(CO)NC(=N)c1c(O)nsc1Nc1ccc(Oc2ccccc2Br)c(Cl)c1 (stereo not drawn) [compound 280]
100 to 500	CC(CO)NC(=N)c1c(O)nsc1Nc1ccc(Oc2cccc(C(C)(C)C)c2)cc1 (stereo not drawn) [compound 284]
> 500	Cc1cc(C#N)cc(C)c1Oc1ccc(Nc2snc(O)c2C(=N)NC(C)C)cc1Cl [compound 285]
1 to 100	CC(C)NC(=N)c1c(O)nsc1Nc1ccc(Oc2ccccc2)c(Cl)c1 [compound 286]

IC50 [nM]	Compound
1 to 100	Cc1ccc(Cl)c(Oc2ccc(Nc3snc(O)c3C(=N)NC(C)CO)cc2)c1 (stereo not drawn) [compound 288]
1 to 100	CC(C)NC(=N)c1c(O)nsc1Nc1ccc(Oc2ccccc2Br)c(Cl)c1 [compound 290]
1 to 100	Cc1cccc(Oc2ccc(Nc3snc(O)c3C(=N)NC(C)C)cc2)c1 [compound 291]
1 to 100	CC(CO)NC(=N)c1c(O)nsc1Nc1ccc(Oc2ccccc2Br)cc1 (stereo not drawn) [compound 295]
100 to 500	CC(C)NC(=N)c1c(O)nsc1Nc1ccc(Oc2ccc(F)cc2Cl)cc1 [compound 296]
100 to 500	CC(C)NC(=N)c1c(O)nsc1Nc1ccc(Oc2ccc(O)cc2)cc1 [compound 298]
1 to 100	Cc1ccccc1Oc1ccc(Nc2snc(O)c2C(=N)NC(C)CO)cc1 (stereo not drawn) [compound 300]
1 to 100	CC(CO)NC(=N)c1c(O)nsc1Nc1ccc(Oc2ccccc2F)c(F)c1 (stereo not drawn) [compound 303]
1 to 100	Cc1ccc(Cl)cc1Oc1ccc(Nc2snc(O)c2C(=N)NC(C)CO)cc1 (stereo not drawn) [compound 304]
1 to 100	CC(CO)NC(=N)c1c(O)nsc1Nc1ccc(Oc2ccccc2)c(F)c1 (stereo not drawn) [compound 306]
1 to 100	CC(C)NC(=N)c1c(O)nsc1Nc1ccc(Oc2ccccc2)c(F)c1 [compound 307]
100 to 500	CC(C)NC(=N)c1c(O)nsc1Nc1ccc(Oc2cc(F)ccc2Cl)cc1 [compound 308]
> 500	CC(C)NC(=N)c1c(O)nsc1Nc1ccc(-n2cccn2)cc1 [compound 314]
1 to 100	CC(C)NC(=N)c1c(O)nsc1Nc1ccc(Oc2cc(F)ccc2Cl)c(F)c1 [compound 319]
1 to 100	CC(C)NC(=N)c1c(O)nsc1Nc1ccc(Oc2ccc(Cl)cc2Cl)c(F)c1 [compound 320]
1 to 100	CC(CO)NC(=N)c1c(O)nsc1Nc1ccc(Oc2cc(F)ccc2Cl)c(F)c1 (stereo not drawn) [compound 322]
100 to 500	Cc1cc(Nc2snc(O)c2C(=N)NC(C)CO)ccc1Oc1ccccc1 (stereo not drawn) [compound 324]
> 500	Cc1ccccc1Oc1ccc(Nc2snc(O)c2C(=N)NC(C)CO)cc1C (stereo not drawn) [compound 325]
1 to 100	CC(C)NC(=N)c1c(O)nsc1Nc1ccc(Oc2cc(C(F)(F)F)cc(C(F)(F)F)c2)cc1 [compound 331]
100 to 500	CC(CO)NC(=N)c1c(O)nsc1Nc1ccc(Oc2cc(C(F)(F)F)cc(C(F)(F)F)c2)cc1 (stereo not drawn) [compound 332]
